ChEMBL document CHEMBL5500393, “Discovery and Optimization of Novel SaFabI Inhibitors as Specific Therapeutic Agents for MRSA Infection” (J Med Chem, 2024)
In brackets after ≈: the same amount, converted by molar mass.

How the values were obtained:
Staphylococcus aureus [1] = assay: Antimicrobial activity against […] Staphylococcus aureus NRS271 measured after 24 hrs by CLSI protocol based microdilution method; type: functional
Staphylococcus aureus [2] = assay: Antimicrobial activity against methicillin-susceptible Staphylococcus aureus ATCC25923 measured after 24 hrs by CLSI protocol based microdilution method; type: functional
[3] = target: T1, Enoyl-[acyl-carrier-protein] reductase [NADPH] FabI (Staphylococcus aureus) (UniProt Q6GI75); assay: Inhibition of N-terminal his 6 tagged Staphylococcus aureus Fabi (1 to […] residues) expressed in Escherichia coli BL21 at 10 uM incubated for 30 mins in presence of NADPH by fluorescence based microplate reader analysis relative to control
T1 sequence (whole entry): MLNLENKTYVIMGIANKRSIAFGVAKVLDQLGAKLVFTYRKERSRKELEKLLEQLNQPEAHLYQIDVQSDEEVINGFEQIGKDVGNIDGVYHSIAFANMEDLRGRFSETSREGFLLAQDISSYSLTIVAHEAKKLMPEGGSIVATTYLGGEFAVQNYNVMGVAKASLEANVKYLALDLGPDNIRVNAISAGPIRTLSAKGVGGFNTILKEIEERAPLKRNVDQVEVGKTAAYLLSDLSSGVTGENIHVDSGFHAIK

Pseudomonas aeruginosa = assay: Antimicrobial activity against Pseudomonas aeruginosa PAO1 measured after 24 hrs by CLSI protocol based microdilution method; type: functional
Staphylococcus aureus [4] = assay: Antimicrobial activity against […] Staphylococcus aureus USA300 measured after 24 hrs by CLSI protocol based microdilution method; type: functional
Staphylococcus aureus [5] = assay: Antimicrobial activity against […] Staphylococcus aureus ATCC33591 measured after 24 hrs by CLSI protocol based microdilution method; type: functional
Acinetobacter baumannii = assay: Antimicrobial activity against Acinetobacter baumannii ATCC19606 measured after 24 hrs by CLSI protocol based microdilution method; type: functional
[6] = target: T1, Enoyl-[acyl-carrier-protein] reductase [NADPH] FabI (Staphylococcus aureus); assay: Inhibition of N-terminal his 6 tagged Staphylococcus aureus Fabi (1 to […] residues) expressed in Escherichia coli BL21 at 1 uM incubated for 30 mins in presence of NADPH by fluorescence based microplate reader analysis relative to control
Staphylococcus aureus [7] = assay: Antimicrobial activity against methicillin-susceptible Staphylococcus aureus ATCC29213 measured after 24 hrs by CLSI protocol based microdilution method; type: functional
Candida albicans = assay: Antimicrobial activity against Candida albicans SC5314 measured after 48 hrs by CLSI protocol based microdilution method; type: functional
Enterococcus faecium = assay: Antimicrobial activity against Enterococcus faecium ATCC19434 measured after 24 hrs by CLSI protocol based microdilution method; type: functional
[8] = target: T1, Enoyl-[acyl-carrier-protein] reductase [NADPH] FabI (Staphylococcus aureus); assay: Inhibition of N-terminal his 6 tagged Staphylococcus aureus Fabi (1 to […] residues) expressed in Escherichia coli BL21 at 2.5 uM incubated for 30 mins in presence of NADPH by fluorescence based microplate reader analysis relative to control
[9] = target: T2, Enoyl-[acyl-carrier-protein] reductase [NADPH] FabI (Staphylococcus aureus, UniProt Q6GI75); assay: Inhibition of N-terminal his 6 tagged Staphylococcus aureus Fabi (1 to […] residues) expressed in Escherichia coli BL21 incubated for 30 mins in presence of NADPH by fluorescence based microplate reader analysis
T2 sequence (Q6GI75 whole entry): T1 sequence (whole entry)

Enterococcus faecalis = assay: Antimicrobial activity against Enterococcus faecalis ATCC29212 measured after 24 hrs by CLSI protocol based microdilution method; type: functional
Escherichia coli = assay: Antimicrobial activity against Escherichia coli ATCC25922 measured after 24 hrs by CLSI protocol based microdilution method; type: functional
Staphylococcus aureus [10] = assay: Antimicrobial activity against […] Staphylococcus aureus ATCC43300 measured after 24 hrs by CLSI protocol based microdilution method; type: functional
Staphylococcus aureus [11] = assay: Antimicrobial activity against […] Staphylococcus aureus ATCC33591 assessed as reduction in RNA content measured after 4 hrs by microplate reader based analysis; type: functional
Staphylococcus aureus [12] = assay: Antimicrobial activity against […] Staphylococcus aureus ATCC33591 assessed as reduction in DNA content measured after 4 hrs by microplate reader based analysis; type: functional

`Cc1cccc(N2CC(c3nc4ccccc4n3C)CC2=O)c1C` (stereo not drawn) showed an MIC (Staphylococcus aureus [1]) of 16 µg/mL (≈ 50.1 µM), an MIC (Staphylococcus aureus [2]) of 8 µg/mL (≈ 25 µM) and an inhibition [3] of 95.7%. For the same compound, the MIC (Pseudomonas aeruginosa) was over 32 µg/mL, the MIC (Staphylococcus aureus [4]) was 16 µg/mL (≈ 50.1 µM) and the MIC (Staphylococcus aureus [5]) was 8 µg/mL (≈ 25 µM). It also gave an MIC (Acinetobacter baumannii) of over 32 µg/mL, an inhibition [6] of 53.1% and an MIC (Staphylococcus aureus [7]) of 8 µg/mL (≈ 25 µM). It also gave an MIC (Candida albicans) of over 32 µg/mL, an MIC (Enterococcus faecium) of over 32 µg/mL and an inhibition [8] of 76.8%. It also gave an IC50 [9] of 977 nM, an MIC (Enterococcus faecalis) of over 32 µg/mL and an MIC (Escherichia coli) of over 32 µg/mL. The MIC (Staphylococcus aureus [10]) was 16 µg/mL (≈ 50.1 µM).
Compound `CO[C@H]1/C=C/O[C@@]2(C)Oc3c(C)c(O)c4c(O)c(c(/C=N/N5CCN(C)CC5)c(O)c4c3C2=O)NC(=O)/C(C)=C\C=C\[C@H](C)[C@H](O)[C@@H](C)[C@@H](O)[C@@H](C)[C@H](OC(C)=O)[C@@H]1C` [RIFAMPIN] has an MIC (Staphylococcus aureus [11]) of 0.016 µg/mL (≈ 0.0194 µM).
With `C[C@H]1COc2c(N3CCN(C)CC3)c(F)cc3c(=O)c(C(=O)O)cn1c23` [LEVOFLOXACIN ANHYDROUS] the MIC (Staphylococcus aureus [12]) was 1 µg/mL (≈ 2.77 µM).
